The values that follow come from US10065990B2, “Cyclic peptide compound, and preparation method, pharmaceutical composition and use thereof” (HANGZHOU GUANYU BIO-MEDICAL CO., LTD, priority 2013, dated 2018).

Like-named read-outs stand apart in the source and are kept apart here.

In one assay the target is T1, HDAC7 (Homo sapiens, UniProt Q8WUI4).
T1 sequence (Q8WUI4 1-952): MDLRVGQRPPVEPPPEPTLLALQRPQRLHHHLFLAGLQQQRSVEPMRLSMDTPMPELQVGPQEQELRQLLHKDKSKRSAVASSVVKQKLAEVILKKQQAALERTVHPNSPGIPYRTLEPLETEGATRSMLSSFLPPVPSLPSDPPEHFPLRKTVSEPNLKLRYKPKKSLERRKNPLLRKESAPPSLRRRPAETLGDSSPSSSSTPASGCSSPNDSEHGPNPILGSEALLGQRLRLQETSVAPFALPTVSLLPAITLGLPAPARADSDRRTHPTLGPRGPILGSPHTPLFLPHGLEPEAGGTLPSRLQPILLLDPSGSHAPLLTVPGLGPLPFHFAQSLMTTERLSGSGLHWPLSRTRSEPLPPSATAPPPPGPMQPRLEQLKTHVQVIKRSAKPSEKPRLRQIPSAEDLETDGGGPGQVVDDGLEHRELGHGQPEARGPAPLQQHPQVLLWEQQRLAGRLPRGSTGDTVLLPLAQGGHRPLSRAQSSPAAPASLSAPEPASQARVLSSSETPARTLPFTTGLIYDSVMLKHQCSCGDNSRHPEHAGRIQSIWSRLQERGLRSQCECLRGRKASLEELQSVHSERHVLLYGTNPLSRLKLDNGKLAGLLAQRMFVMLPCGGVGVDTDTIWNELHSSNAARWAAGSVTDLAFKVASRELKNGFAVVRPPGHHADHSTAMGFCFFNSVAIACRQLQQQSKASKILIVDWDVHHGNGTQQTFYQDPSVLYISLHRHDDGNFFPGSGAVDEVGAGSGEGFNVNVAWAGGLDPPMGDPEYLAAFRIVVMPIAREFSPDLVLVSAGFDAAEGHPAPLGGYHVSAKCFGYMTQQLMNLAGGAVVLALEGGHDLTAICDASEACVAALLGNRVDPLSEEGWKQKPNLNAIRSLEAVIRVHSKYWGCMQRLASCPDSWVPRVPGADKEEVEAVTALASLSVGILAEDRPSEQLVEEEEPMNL
The experiment in a line: HDAC biochemical activity measurement (fluorescent substrate deacetylation).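 Further: fluorogenic deacetylation assay using acetyl-lysine substrate at 20 µM, enzyme and compound incubated 30 min at 37 °C, then developer added, fluorescence read at 360/460 nm.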 The settings on record: HDAC7; 37° C. 30 minutes.

The subject of assay [1] is KBM-5 (human chronic myelogenous leukemia). The experiment in a line: MTT cancer cell growth inhibition. To be noted: MTT, 72 hours incubation, KBM-5 cells, read-out: GI50 KBM-5. Type of assay: cell-based. In outline: (§1)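 Read-out was formazan absorbance at 570 nm after a 4 h MTT step and DMSO solubilisation, converted to cell viability and fitted for GI50. Beforehand, cells (1500/well, overnight attachment) were treated with compound at 10^−5 to 10^−10 M for 72 h at 37° C.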

Assay [2] concerns MDA-MB-231 (breast cancer cells). Briefly: MTT cancer cell growth inhibition. Type of assay: cell-based. A digest of the protocol:
as §1

Assay [3] has as its system DU145 (human prostate cancer cells). The experiment in a line: MTT cancer cell growth inhibition. The format is cell-based. To be noted: Homo sapiens, DU-145, 72 h, MTT, 72 hours incubation, read-out: GI50 Du1. A digest of the protocol: as §1
In assay [4] the test system is HT1080 (human fibrosarcoma cells). Briefly: MTT cancer cell growth inhibition. The format is cell-based. To be noted: MTT, 72 hours incubation, read-out: GI50 HT1. A digest of the protocol:
as §1

For assay [5], the system named is N-87 (human gastric cancer cells). The experiment in a line: MTT cancer cell growth inhibition. The format is cell-based. To be noted: Homo sapiens, 72 h, MTT, 72 hours incubation, N-87 cells; read-out: GI50 N-87. In outline:
as §1

The test system of assay [6] is Bel-7402 (human hepatoma cells). The experiment in a line: MTT cancer cell growth inhibition. The settings on record: MTT, 72 hours incubation, Bel-7402 cells, read-out: GI50 Bel-7402. The format is cell-based. A digest of the protocol:
as §1

In assay [7] the test system is MOLT-4 (human acute lymphoblastic leukemia cells). Briefly: MTT cancer cell growth inhibition. Type of assay: cell-based. To be noted: MTT, 72 hours incubation, read-out: GI50 Mol. In outline: as §1
The test system of assay [8] is Hela (human cervical cancer cells). The experiment in a line: MTT cancer cell growth inhibition. The format is cell-based. The settings on record: MTT, 72 hours incubation, read-out: GI50 Hela. In outline:
as §1

Assay [9] deals with MCF-7 (human breast cancer cells). Briefly: MTT cancer cell growth inhibition. The format is cell-based. To be noted: Homo sapiens, MCF7, 72 h, 72 hours incubation, read-out: GI50 MCF. A digest of the protocol:
as §1

The test system of assay [10] is PANC-1 (Pac-1, human pancreatic cancer cells). Briefly: MTT cancer cell growth inhibition. Type of assay: cell-based. To be noted: MTT, 72 hours incubation, read-out: GI50 PAN. A digest of the protocol:
as §1

Assay [11] concerns BGC-823 (human gastric cancer cells). Briefly: MTT cancer cell growth inhibition. Type of assay: cell-based. The settings on record: Homo sapiens, BGC-823, 72 h, MTT, 72 hours incubation, read-out: GI50 BG. A digest of the protocol: as §1
The test system of assay [12] is HCC827 (human non-small cell lung cancer cells). The experiment in a line: MTT cancer cell growth inhibition. Type of assay: cell-based. To be noted: MTT, 72 hours incubation, HCC827 cells, read-out: GI50 HCC827. A digest of the protocol:
as §1

The subject of assay [13] is U937 (human leukemia cells). Briefly: MTT cancer cell growth inhibition. The format is cell-based. The settings on record: Homo sapiens, U-937, 72 h, MTT, 72 hours incubation, read-out: GI50 U93. In outline:
as §1

The test system of assay [14] is SGC-7901 (human gastric cancer cells). The experiment in a line: MTT cancer cell growth inhibition. The format is cell-based. To be noted: MTT, 72 hours incubation, SGC-7901 cells, read-out: GI50 SGC-7901. A digest of the protocol:
as §1

For assay [15], the system named is A549 (human lung cancer cells). Briefly: MTT cancer cell growth inhibition. The format is cell-based. To be noted: Homo sapiens, A549, 72 h, MTT, 72 hours incubation, read-out: GI50 A54. A digest of the protocol:
as §1

Assay [16] has as its system Huh-7 (human hepatoma cells). The experiment in a line: MTT cancer cell growth inhibition. The format is cell-based. To be noted: Homo sapiens, Huh-7, 72 h, MTT, 72 hours incubation, Huh-7 cells; read-out: GI50 Huh-7. A digest of the protocol: as §1
Assay [17] deals with KBM5-T315I (human chronic myelogenous leukemia). Briefly: MTT cancer cell growth inhibition. The format is cell-based. To be noted: Homo sapiens, 72 h, MTT, 72 hours incubation, KBM5-T315I cells; read-out: GI50 KBM5-T315I. A digest of the protocol:
as §1

The subject of assay [18] is K562 (human leukemia cells). Briefly: MTT cancer cell growth inhibition. The format is cell-based. To be noted: Homo sapiens, K562, 72 h, MTT, 72 hours incubation, K562 cells; read-out: GI50 K562. In outline: as §1
Assay [19] has as its system H1975 (non-small cell lung adenocarcinoma). The experiment in a line: MTT cancer cell growth inhibition. The format is cell-based. To be noted: MTT, 72 hours incubation, H1975 cells, read-out: GI50 H1975. In outline:
as §1

The subject of assay [20] is lncap (prostate cancer cells). Briefly: MTT cancer cell growth inhibition. To be noted: MTT, 72 hours incubation, read-out: GI50 lnca. The format is cell-based. In outline:
as §1

Setting [21] is: Homo sapiens, MDA-MB-231, 72 h, read-out: GI50 MDA-MB-231, MTT, 72 hours incubation, MDA-MB-231 cells.

Broadly, the GI50 is the concentration at which growth is held to half of that of the control. For `C/C=C1\NC(=O)c2nc(ccc2F)CNC(=O)C[C@@H](/C=C/CCS)OC(=O)[C@H](Cc2ccccc2)NC1=O` [Compound 115], the “IC50 HDAC7” value against HDAC7 is “no activity”. The GI50 in [1] (Homo sapiens, KBM5, 72 h) turned out to be 53 nM; in assay [2] (setting [21]), 36 nM; in assay [3], 70 nM; in assay [4] (Homo sapiens, HT-1080, 72 h) it was 80 nM; in [5], 45 nM; in assay [6] (Homo sapiens, Bel-7402, 72 h) it was 36 nM. Moreover, the concentration for 50% growth inhibition (GI50) in assay [7] (Homo sapiens, MOLT-4, 72 h) amounted to 80 nM; in assay [8] (Homo sapiens, HeLa, 72 h), 80 nM; in assay [9] it was 70 nM; in assay [10] (Homo sapiens, PANC-1, 72 h), 60 nM; in [11], 60 nM; in assay [12] (Homo sapiens, HCC827, 72 h) it was 41 nM. Also, the GI50 came to 40 nM in [13]; 23 nM in assay [14] (Homo sapiens, SGC-7901, 72 h); 40 nM in assay [15]; 99 nM in assay [16]; 28 nM in [17]; 41 nM in assay [18]. Further, the GI50 in assay [19] (Homo sapiens, NCI-H1975, 72 h) was determined as 23 nM; in assay [20] (Homo sapiens, LNCaP, 72 h) it was 80 nM.
As to `C/C=C1\NC(=O)c2ccc(F)c(n2)CNC(=O)C[C@@H](/C=C/CCS)OC(=O)[C@H](Cc2cccc3ccccc23)NC1=O` [Compound 126], the “IC50 HDAC7” value against HDAC7 was “no activity”. The 50% growth inhibitory concentration (GI50) in [1] (Homo sapiens, KBM5, 72 h) came to 41 nM; in [2] (setting [21]), 29 nM; in [3], 60 nM; in assay [4] (Homo sapiens, HT-1080, 72 h) it was 50 nM; in [5], 33 nM; in [6] (Homo sapiens, Bel-7402, 72 h) it was 49 nM. Also, the GI50 in assay [7] (Homo sapiens, MOLT-4, 72 h) came out at 90 nM; in assay [8] (Homo sapiens, HeLa, 72 h), 130 nM; in assay [9], 20 nM; in assay [10] (Homo sapiens, PANC-1, 72 h), 30 nM; in [11] it was 100 nM; in [12] (Homo sapiens, HCC827, 72 h), 38 nM. For the same molecule, the concentration for 50% growth inhibition (GI50) in [13] is 70 nM; in assay [14] (Homo sapiens, SGC-7901, 72 h), 81 nM; in assay [15] it was 30 nM; in assay [16], 51 nM; in [17] it was 37 nM; in [18], 79 nM. Besides, the GI50 in [19] (Homo sapiens, NCI-H1975, 72 h) was determined as 33 nM; in assay [20] (Homo sapiens, LNCaP, 72 h), 20 nM.
Regarding `C/C=C1\NC(=O)c2ccc(C)c(n2)CNC(=O)C[C@@H](/C=C/CCSC(C)=O)OC(=O)[C@H](Cc2ccccc2)NC1=O` [Example 68], on HDAC7, the “IC50 HDAC7” value is on record as “no activity”. The GI50 in assay [1] (Homo sapiens, KBM5, 72 h) was determined as 51 nM; in assay [2] (setting [21]), 22 nM; in assay [3], 20 nM; in assay [4] (Homo sapiens, HT-1080, 72 h), 80 nM; in assay [5], 43 nM; in assay [6] (Homo sapiens, Bel-7402, 72 h), 83 nM. Further, the GI50 is 20 nM in [7] (Homo sapiens, MOLT-4, 72 h); 50 nM in assay [8] (Homo sapiens, HeLa, 72 h); 30 nM in [9]; 80 nM in assay [10] (Homo sapiens, PANC-1, 72 h); 40 nM in [11]; 83 nM in assay [12] (Homo sapiens, HCC827, 72 h). Also, the GI50 in assay [13] was found to be 30 nM; in [14] (Homo sapiens, SGC-7901, 72 h) it was 29 nM; in assay [15], 20 nM; in [16], 22 nM; in assay [17], 34 nM; in assay [18], 26 nM. For the same molecule, the GI50 was 35 nM in assay [19] (Homo sapiens, NCI-H1975, 72 h) and 20 nM in assay [20] (Homo sapiens, LNCaP, 72 h).
As for `C/C=C1\NC(=O)c2ccc(SC)c(n2)CNC(=O)C[C@@H](/C=C/CCSC(C)=O)OC(=O)[C@H](C(C)C)NC1=O` [Compound 167], on HDAC7, the “IC50 HDAC7” value was “no activity”. Further, the GI50 in assay [1] was found to be 14 nM; in assay [2] (read-out: GI50 MDA-MB-231, MTT, 72 hours incubation, MDA-MB-231 cells) it was 91 nM; in assay [3] (DU145 cells) it was 40 nM; in assay [4] (HT1080 cells), 100 nM; in [5] it was 42 nM; in [6], 75 nM. The concentration for 50% growth inhibition (GI50) in assay [7] (MOLT-4 cells) was 20 nM; in [8] (Hela cells) it was 40 nM; in assay [9] (MCF-7 cells), 30 nM; in [10] (PANC-1 cells) it was 70 nM; in [11] (BGC-823 cells) it was 40 nM; in [12], 28 nM. For the same molecule, the GI50 was 20 nM in [13] (U937 cells); 97 nM in [14]; 30 nM in assay [15] (A549 cells); 29 nM in [16]; 33 nM in assay [17]; 45 nM in [18]. The GI50 in [19] came out at 43 nM; in [20] (lncap cells), 60 nM.
